Test results published in patent US20130123215A1, “2,5-DIOXOIMIDAZOLIDIN-1-YL-3-PHENYLUREA DERIVATIVES AS FORMYL PEPTIDE RECEPTOR LIKE-1 (FPRL-1) RECEPTOR MODULATORS” (ALLERGAN, INC., priority 2011, published 2013).
Values joined by “and” are separate entries in the source; they are usually repeats but may differ in a detail not shown here. Equal values may be shown once.

The compounds below were run against T1, FPRL-1 (Homo sapiens, UniProt P25090) (assay: FPRL-1 Ga16-CHO compound-induced calcium activity (FLIPR Tetra)). Conditions: CHO-Gα16 cells stably expressing FPRL1; calcium activity on FLIPR Tetra; tested at 0.61 to 10,000 nM; read-out: FPRL-1 Ga16-CHO EC50.
T1 construct: expressed in transfected cells; host or cells: CHO-Gα16 cells stably expressing FPRL1
T1 sequence (P25090 1-351): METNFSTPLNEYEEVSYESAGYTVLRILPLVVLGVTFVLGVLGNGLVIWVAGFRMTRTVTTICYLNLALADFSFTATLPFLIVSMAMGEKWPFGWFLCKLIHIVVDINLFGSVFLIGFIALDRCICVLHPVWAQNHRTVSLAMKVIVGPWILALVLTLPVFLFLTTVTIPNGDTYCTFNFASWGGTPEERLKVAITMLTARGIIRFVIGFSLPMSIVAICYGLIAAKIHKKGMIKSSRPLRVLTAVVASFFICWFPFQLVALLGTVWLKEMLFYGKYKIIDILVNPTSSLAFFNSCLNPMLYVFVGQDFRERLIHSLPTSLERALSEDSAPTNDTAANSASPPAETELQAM
Format: cell-based
Protocol: HEK-Gα16 and CHO-Gα16 cells stably expressing FPRL1 were cultured in (F12, 10% FBS, 1% PSA, 400 μg/ml geneticin and 50 μg/ml hygromycin) and HEK-Gqi5 cells stable expressing FPR1 were cultured in (DMEM high glucose, 10% FBS, 1% PSA, 400 μg/ml geneticin and 50 μg/ml hygromycin). In general, the day before the experiment, 18,000 cells/well were plated in a 384-well clear bottom poly-d-lysine coated plate. The following day the screening compound-induced calcium activity was assayed on the FLIPR^Tetra. The drug plates were prepared in 384-well microplates using the EP3 and the MultiPROBE robotic liquid handling systems. Compounds were tested at concentrations ranging from 0.61 to 10,000 nM. Results are expressed as EC50 (nM) and efficacy values.

Row | Structure (SMILES) | EC50
1 | O=C(Nc1ccc(Br)cc1F)NN1C(=O)NC2(CCCCC2)C1=O [Compound 15, 1-(4-Bromo-2-fluorophenyl)-3-(2,4-dioxo-1,3-diazaspiro[4.5]decan-3-yl)urea] | 233 nM
2 | O=C(Nc1ccc(Br)cc1)NN1C(=O)NC(C2CC2)(C2CC2)C1=O [Compound 66, 1-(4-Bromophenyl)-3-(4,4-dicyclopropyl-2,5-dioxoimidazolidin-1-yl)urea] | 14.3 nM
3 | CC1(COc2ccccc2)NC(=O)N(NC(=O)Nc2ccc(Br)cc2)C1=O (stereo not shown) [Compound 25, 1-(4-Bromophenyl)-3-(4-methyl-2,5-dioxo-4-(phenoxymethyl)imidazolidin-1-yl)urea] | 22.1 nM
4 | CCc1ccc(NC(=O)NN2C(=O)NC(CC)(CC)C2=O)cc1 [Compound 4, 1-(4-Ethylphenyl)-3-(4,4-diethyl-2,5-dioxoimidazolidin-1-yl)urea] | 125 nM
5 | CCC1(CC)NC(=O)N(NC(=O)Nc2ccc(Cl)cc2)C1=O [Compound 2, 1-(4-Chlorophenyl)-3-(4,4-diethyl-2,5-dioxoimidazolidin-1-yl)urea] | 27 nM
6 | CCC1(CC)NC(=O)N(NC(=O)Nc2ccc(C)cc2)C1=O [Compound 7, 1-(4-Methylphenyl)-3-(4,4-diethyl-2,5-dioxoimidazolidin-1-yl)urea] | 96 nM
7 | CCC1(CCc2ccccc2)NC(=O)N(NC(=O)Nc2ccc(Br)cc2F)C1=O (stereo not shown) [Compound 29, 1-(4-Bromo-2-fluorophenyl)-3-(4-ethyl-2,5-dioxo-4-(phenethyl)imidazolidin-1-yl)urea] | < 2 nM
8 | CC1(CCc2ccccc2)NC(=O)N(NC(=O)Nc2ccc(Br)cc2F)C1=O (stereo not shown) [Compound 17, 1-(4-Bromo-2-fluorophenyl)-3-(4-methyl-2,5-dioxo-4-phenethylimidazolidin-1-yl)urea] | 61 nM
9 | CCC1(CC)NC(=O)N(NC(=O)Nc2ccc(Cl)c(F)c2)C1=O [Compound 19, 1-(4-Chloro-3-fluorophenyl)-3-(4,4-diethyl-2,5-dioxoimidazolidin-1-yl)urea] | 149 nM
10 | CCC1(CC)NC(=O)N(NC(=O)Nc2ccc(C#N)cc2)C1=O [Compound 5, 1-(4-Cyanophenyl)-3-(4,4-diethyl-2,5-dioxoimidazolidin-1-yl)urea] | 1230 nM
11 | CC1(CCc2ccccc2C(=O)O)NC(=O)N(NC(=O)Nc2ccc(Br)cc2)C1=O (stereo not shown) [Compound 78, 2-(2-(1-(3-(4-Bromophenyl)ureido)-4-methyl-2,5-dioxoimidazolidin-4-yl)ethyl)benzoic acid] | 17.2 nM
12 | CC1(CCc2ccc(O)c(F)c2)NC(=O)N(NC(=O)Nc2ccc(Br)cc2F)C1=O (stereo not shown) [Compound 48, 1-(4-Bromo-2-fluorophenyl)-3-{4-[2-(3-fluoro-4-hydroxyphenyl)ethyl]-4-methyl-2,5-dioxoimidazolidin-1-yl}urea] | 7.4 nM
13 | CC1(CCc2ccncc2)NC(=O)N(NC(=O)Nc2ccc(Br)cc2)C1=O (stereo not shown) [Compound 54, 1-(4-Bromophenyl)-3-(4-methyl-2,5-dioxo-4-(2-(pyridin-4-yl)ethyl)imidazolidin-1-yl)urea] | 30.2 nM
14 | COC(=O)c1ccccc1CCC1(C)NC(=O)N(NC(=O)Nc2ccc(Br)cc2)C1=O (stereo not shown) [Compound 59, Methyl 2-(2-(1-(3-(4-bromophenyl)ureido)-4-methyl-2,5-dioxoimidazolidin-4-yl)ethyl)benzoate] | 28.9 nM
15 | CC(C)C1(CCO)NC(=O)N(NC(=O)Nc2ccc(Br)cc2)C1=O (stereo not shown) [Compound 75, 1-(4-Bromophenyl)-3-(4-(2-hydroxyethyl)-4-isopropyl-2,5-dioxoimidazolidin-1-yl)urea] | 21.2 nM
16 | CC1(CCc2ccc(Cl)cc2)NC(=O)N(NC(=O)Nc2ccc(Br)cc2F)C1=O (stereo not shown) [Compound 34] | 1380 nM
17 | CCC1(CCc2ccccc2C(=O)O)NC(=O)N(NC(=O)Nc2ccc(Br)cc2F)C1=O (stereo not shown) [Compound 80, 2-[2-(1-{[(4-Bromo-2-fluorophenyl)carbamoyl]amino}-4-ethyl-2,5-dioxoimidazolidin-4-yl)ethyl]benzoic acid] | 11.1 nM
18 | CC1(CCc2ccccc2F)NC(=O)N(NC(=O)Nc2ccc(Br)cc2F)C1=O (stereo not shown) [Compound 38, 1-(4-Bromo-2-fluorophenyl)-3-(4-(2-fluorophenethyl)-4-methyl-2,5-dioxoimidazolidin-1-yl)urea] | 56.2 nM

Row | Structure (SMILES) | EC50
19 | CC1(CCc2ccco2)NC(=O)N(NC(=O)Nc2ccc(Br)cc2)C1=O (stereo not shown) [Compound 35] | 6.9 nM
20 | CC(C)C1(CC(=O)NCC(N)=O)NC(=O)N(NC(=O)Nc2ccc(Br)cc2)C1=O (stereo not shown) [Compound 96, N-(2-Amino-2-oxoethyl)-2-(1-(3-(4-bromophenyl)ureido)-4-isopropyl-2,5-dioxoimidazolidin-4-yl)acetamide] | 51.3 nM
21 | CC1(CCc2ccc(O)cc2)NC(=O)N(NC(=O)Nc2ccc(Br)cc2)C1=O (stereo not shown) [Compound 42, 1-(4-Bromophenyl)-3-(4-(4-hydroxyphenethyl)-4-methyl-2,5-dioxoimidazolidin-1-yl)urea] | 13.3 nM
22 | CCC1(CC)NC(=O)N(NC(=O)Nc2ccc(Cl)cc2F)C1=O [Compound 16, 1-(4-Chloro-2-fluorophenyl)-3-(4,4-diethyl-2,5-dioxoimidazolidin-1-yl)urea] | 39 nM
23 | CC(C)C1(CC(=O)NCCO)NC(=O)N(NC(=O)Nc2ccc(Br)cc2)C1=O (stereo not shown) [Compound 84, 2-(1-(3-(4-Bromophenyl)ureido)-4-isopropyl-2,5-dioxoimidazolidin-4-yl)-N-(2-hydroxyethyl)acetamide] | 16.2 nM
24 | O=C(Nc1ccc(Br)cc1)NN1C(=O)NC2(Cc3ccccc3C2)C1=O [Compound 13, 1-(4-Bromophenyl)-3-(2,5-dioxo-1′,3′-dihydrospiro[imidazolidine-4,2′-inden]-1-yl)urea] | 47 nM
25 | CC1(CCc2ccncc2)NC(=O)N(NC(=O)Nc2ccc(Br)cc2F)C1=O (stereo not shown) [Compound 55] | 28.6 nM
26 | O=C(Nc1ccc(Br)cc1F)NN1C(=O)NC2(CCc3ccccc3C2)C1=O (stereo not shown) [Compound 26] | 191 nM
27 | CC1(CCc2cccc(O)c2)NC(=O)N(NC(=O)Nc2ccc(Br)cc2)C1=O (stereo not shown) [Compound 52, 1-(4-Bromophenyl)-3-(4-(3-hydroxyphenethyl)-4-methyl-2,5-dioxoimidazolidin-1-yl)urea] | 1.5 nM and 2.07 nM
28 | CCC1(CC)NC(=O)N(NC(=O)Nc2ccc(Br)cc2)C1=O [Compound 1, 1-(4-Bromophenyl)-3-(4,4-diethyl-2,5-dioxoimidazolidin-1-yl)urea] | 9.1 nM
29 | CC(C)C1(CO)NC(=O)N(NC(=O)Nc2ccc(Br)cc2F)C1=O (stereo not shown) [Compound 76, 1-(4-Bromo-2-fluorophenyl)-3-(4-(2-hydroxymethyl)-4-isopropyl-2,5-dioxoimidazolidin-1-yl)urea] | 50 nM
30 | CC(C)C1(CC(=O)NC(CO)CO)NC(=O)N(NC(=O)Nc2ccc(Br)cc2)C1=O (stereo not shown) [2-[1-{[(4-Bromophenyl)carbamoyl]amino}-2,5-dioxo-4-(propan-2-yl)imidazolidin-4-yl]-N-(1,3-dihydroxypropan-2-yl)acetamide] | 16.2 nM
31 | CC(C)C1(C(C)C)NC(=O)N(NC(=O)Nc2ccc(Br)cc2)C1=O [Compound 67, 1-(4-Bromophenyl)-3-[2,5-dioxo-4,4-di(propan-2-yl)imidazolidin-1-yl]urea] | < 2 nM
32 | O=C(Nc1ccc(Br)cc1F)NN1C(=O)NC2(CCCC2)C1=O [Compound 11, 1-(4-Bromo-2-fluorophenyl)-3-(2,4-dioxo-1,3-diazaspiro[4.4]nonan-3-yl)urea] | 23.9 nM
33 | CCC1(CC)NC(=O)N(NC(=O)Nc2ccc(SC)cc2)C1=O [Compound 8, 1-(4-Methylthiophenyl)-3-(4,4-diethyl-2,5-dioxoimidazolidin-1-yl)urea] | 37.1 nM
34 | CC1(Cc2c[nH]c3ccccc23)NC(=O)N(NC(=O)Nc2ccc(Br)cc2)C1=O (stereo not shown) [Compound 64, 1-(4-Bromophenyl)-3-[4-(1H-indol-3-ylmethyl)-4-methyl-2,5-dioxoimidazolidin-1-yl]urea] | 114 nM
35 | CC(C)OP(=O)(CNC(=O)CC1(C(C)C)NC(=O)N(NC(=O)Nc2ccc(Br)cc2)C1=O)OC(C)C (stereo not shown) [Compound 88, Diisopropyl((2-(1-(3-(4-bromophenyl)ureido)-4-isopropyl-2,5-dioxoimidazolidin-4-yl)acetamido)methyl)phosphonate] | 193 nM

Same assay, conditions: FPRL-1 Ga16-CHO EC50, CHO-Gα16 cells stably expressing FPRL1; calcium activity on FLIPR Tetra; tested at 0.61 to 10,000 nM

Row | Structure (SMILES) | EC50 [nM]
36 | CCOP(=O)(O)CNC(=O)CC1(C(C)C)NC(=O)N(NC(=O)Nc2ccc(Br)cc2)C1=O (stereo not shown) [Compound 89, Ethyl hydrogen((2-(1-(3-(4-bromophenyl)ureido)-4-isopropyl-2,5-dioxoimidazolidin-4-yl)acetamido)methyl)phosphonate] | 313
37 | CCOP(=O)(CNC(=O)CC1(C(C)C)NC(=O)N(NC(=O)Nc2ccc(Br)cc2)C1=O)OCC (stereo not shown) [Compound 86, Diethyl((2-(1-(3-(4-bromophenyl)ureido)-4-isopropyl-2,5-dioxoimidazolidin-4-yl)acetamido)methyl)phosphonate] | 272
